Consider 23 compounds from BindingDB's records for patent WO2022021841 (Sichuan University, 2022).

The target in assay [1] is T1, Replicase polyprotein 1ab (Severe acute respiratory syndrome coronavirus 2, UniProt P0DTD1). Put plainly: SARS-CoV-2 Coronavirus 3C Protease FRET Assay. The procedure: IC50 values were calculated by fitting a curve of Vmax to experimental values with the controls (DMSO) as the top and bottom limits of the curve. […] GraphPad Prism is the analysis tool for all measurements.

In assay [2] the target is T1, Replicase polyprotein 1ab. Put plainly: SARS-CoV-2 in Vero E6.

What is called Ki is the dissociation constant of the complex between target and ligand, obtained from inhibition or displacement. Lower therefore signals tighter binding. A word on the EC50: it is the concentration at which the effect is half-maximal.

Turning to `CC1(C)[C@@H]2C(C(=O)N[C@H](C=O)C[C@@H]3CCNC3=O)N(C(=O)COc3ccc4ccccc4c3)C[C@@H]21` (some centres undefined) [WO2022021841, 27], the Ki in assay [1] turned out to be 54 nM. Also, in assay [2], the EC50 was determined as 1270 nM.

In assay [1], `O=C[C@H](C[C@@H]1CCNC1=O)NC(=O)C1[C@@H]2CCC[C@H]2CN1C(=O)CCc1cccc(F)c1` (some centres undefined) [WO2022021841, 37] showed a Ki of 7 nM. This compound displayed an EC50 in assay [2] of 2970 nM.

For the compound `CC1(C)[C@@H]2C(C(=O)N[C@H](C=O)C[C@@H]3CCNC3=O)N(C(=O)COc3ccc(Br)cc3Cl)C[C@@H]21` (some centres undefined) [WO2022021841, 31], the Ki in assay [1] was determined as 15 nM. The same compound registered an EC50 in assay [2] of 1180 nM.

With `COc1ccc(OCC(=O)N2C[C@@H]3CCC[C@@H]3C2C(=O)N[C@H](C=O)C[C@@H]2CCNC2=O)cc1` (some centres undefined) [WO2022021841, 17], in assay [1], the Ki was found to be 20 nM. For the same compound, it took 24700 nM to reach a half-maximal effect in assay [2] (EC50).

Turning to `CC1(C)[C@@H]2C(C(=O)N[C@H](C=O)C[C@@H]3CCNC3=O)N(C(=O)COc3ccc(Cl)cc3)C[C@@H]21` (some centres undefined) [WO2022021841, 43], the affinity in assay [1], expressed as Ki, was 9 nM. In assay [2], this compound gave an EC50 of 530 nM.

`CC1(C)[C@@H]2C(C(=O)N[C@H](C=O)C[C@@H]3CCNC3=O)N(C(=O)COc3cc(F)cc(F)c3)C[C@@H]21` (some centres undefined) [WO2022021841, 34] displayed a Ki in assay [1] of 20 nM. In addition, the EC50 in assay [2] came to 1540 nM.

In turn, `COc1ccc(OCC(=O)N2C[C@H]3[C@@H](C2C(=O)N[C@H](C=O)C[C@@H]2CCNC2=O)C3(C)C)cc1OC` (some centres undefined) [WO2022021841, 20] had a Ki in assay [1] of 12 nM. Besides, a half-maximal effect in assay [2] (EC50) was put at 1730 nM.

Consider `CC1(C)[C@@H]2C(C(=O)N[C@H](C=O)C[C@@H]3CCNC3=O)N(C(=O)COc3ccc(F)c(F)c3)C[C@@H]21` (some centres undefined) [WO2022021841, 33], for which the Ki in assay [1] is 13 nM. This compound showed an EC50 in assay [2] of 5570 nM.

Turning to `COc1ccc(OCC(=O)N2C[C@H]3[C@@H](C2C(=O)N[C@H](C=O)C[C@@H]2CCNC2=O)C3(C)C)cc1F` (some centres undefined) [WO2022021841, 28], in assay [1], the Ki came to 47 nM. The same compound returned a half-maximal effective concentration (EC50) in assay [2] of 4680 nM.

In assay [1], `O=C[C@H](C[C@@H]1CCNC1=O)NC(=O)C1[C@@H]2CCC[C@H]2CN1C(=O)COc1ccc(Cl)cc1` (some centres undefined) [WO2022021841, 26] returned a Ki of 9 nM. Besides, it took 670 nM to reach a half-maximal effect in assay [2] (EC50).

`Cc1cc(Cl)ccc1OCC(=O)N1C[C@@H]2CCC[C@H]2C1C(=O)N[C@H](C=O)C[C@@H]1CCNC1=O` (some centres undefined) [WO2022021841, 24] gave a Ki in assay [1] of 22 nM. In addition, the EC50 in assay [2] was found to be 1500 nM.

`O=C[C@H](C[C@@H]1CCNC1=O)NC(=O)C1[C@@H]2CCC[C@H]2CN1C(=O)COc1ccc(Cl)c(Cl)c1` (some centres undefined) [WO2022021841, 45] registered a Ki in assay [1] of 19 nM. The EC50 in assay [2] was 830 nM.

In turn, `O=C[C@H](C[C@@H]1CCNC1=O)NC(=O)C1[C@H]2CCC[C@H]2CN1C(=O)CCc1cc(F)cc(F)c1` (some centres undefined) [WO2022021841, 19] had an inhibition constant (Ki) in assay [1] of 11 nM. The compound also registered an EC50 in assay [2] of 5630 nM.

Turning to `CC1(C)[C@@H]2C(C(=O)N[C@H](C=O)C[C@@H]3CCNC3=O)N(C(=O)COc3ccc(Cl)cc3Cl)C[C@@H]21` (some centres undefined) [WO2022021841, 44], the Ki in assay [1] is 10 nM. In assay [2], this compound displayed an EC50 of 660 nM.

The compound `CC1(C)[C@@H]2C(C(=O)N[C@H](C=O)C[C@@H]3CCNC3=O)N(C(=O)COc3ccc(Cl)c(Br)c3)C[C@@H]21` (some centres undefined) [WO2022021841, 30] yielded a Ki in assay [1] of 14 nM. This compound also gave an EC50 in assay [2] of 1150 nM.

In assay [1], `CC1CNC(=O)[C@@H]1C[C@H](NC(=O)C1[C@@H]2CCC[C@H]2CN1C(=O)COc1ccc(OC(F)(F)F)cc1)C(=O)CF` (some centres undefined) [WO2022021841, 80] came in with an inhibition constant Ki of 23 nM.

`CC1CNC(=O)[C@@H]1C[C@@H](C=O)NC(=O)C1[C@@H]2[C@H](CN1C(=O)COc1ccc(Cl)c(Cl)c1)C2(C)C` (some centres undefined) [WO2022021841, 48] came in with a Ki in assay [1] of 11 nM. This Ki is about 2.1-fold lower than that of the compound before.

`COC(=O)C[C@H](NC(=O)[C@@H]1[C@@H]2[C@H](CN1C(=O)/C=C/c1ccccc1)C2(C)C)C(=O)CF` [WO2022021841, 2]: the Ki in assay [1] worked out at 110 nM.

As for `CC1(C)[C@@H]2C(C(=O)N[C@H](C=O)C[C@@H]3CCNC3=O)N(C(=O)CCc3cccc(F)c3)C[C@@H]21` (some centres undefined) [WO2022021841, 36], the Ki in assay [1] was 16 nM. In assay [2], this compound gave an EC50 of 2230 nM.

For `COc1ccc(CCC(=O)N2C[C@@H]3CCC[C@H]3C2C(=O)N[C@H](C=O)C[C@@H]2CCNC2=O)c(Cl)c1` (some centres undefined) [WO2022021841, 77], the affinity in assay [1], expressed as Ki, was 56 nM.

In turn, `O=C[C@H](C[C@@H]1CCNC1=O)NC(=O)C1[C@@H]2CCC[C@H]2CN1C(=O)CCc1ccc(Cl)cc1Cl` (some centres undefined) [WO2022021841, 67] displayed a Ki in assay [1] of 40 nM. The Ki values of the last two compounds are within 1.5-fold of each other.

On to `COc1ccc(OCC(=O)N2C[C@H]3[C@@H](C2C(=O)N[C@H](C=O)C[C@@H]2CCNC2=O)C3(C)C)cc1` (some centres undefined) [WO2022021841, 32], for which, in assay [1], the Ki is 36 nM. The Ki values of the last two compounds are within 1.5-fold of each other.

The compound `CCC[C@@H](NC(=O)C1[C@@H]2CCC[C@H]2CN1C(=O)[C@@H](c1ccccc1)C(C)C)C(=O)C(=O)NC1CC1` (some centres undefined) [WO2022021841, 12] gave an inhibition constant Ki in assay [1] of 16900 nM.
